Reference: PMC6153520, “Proteasome inhibition and mechanism of resistance to a synthetic, library-based hexapeptide” (Investigational New Drugs, 2018)
Where a SMILES comes first, the peptide text is derived from it. [ ]: non-standard residue; d: D form. The star is where a group is joined. His(τ-Bzl) = N[C@@H](Cc1cn(Cc2ccccc2)cn1)C(=O)O; Nle = CCCC[C@H](N)C(=O)O; NHBn = c1ccc(CN*)cc1; Bn = c1ccc(C*)cc1; OtBu = CC(C)(C)O*; tBu = CC(C)(C)*

Tested on: THP1/BTZ50
Assay: Growth inhibition assay (72 h, trypan blue)
Format: cell-based, human
Settings: relative to IC50 in THP1/WT
Procedure: Human monocytic/macrophage THP1 cells (ATTC, Manassas, USA) were cultured in RPMI-1640 medium supplemented with 5% fetal calf serum, 20 mM HEPES, 2 mM glutamine and 100 μg/ml penicillin/ streptomycin at 5% CO2 and 37 °C. Cell cultures were seeded at a density of 3 × 10^5 cells/ml and refreshed twice weekly. […] Some specific experiments also included THP1/BTZ100 cells that were cultured in the absence of BTZ for 6 months (further designated as THP1/BTZ (−100) cells). Mouse thymoma EL4 and human multiple myeloma H929 cells were cultured in RPMI-1640 medium supplemented with 8% fetal calf serum and 100 μg/ml penicillin/streptomycin at 5% CO2 and 37 °C.
Evaluation of drug sensitivity was carried out as described before. Cells were seeded at an initial density of 1.25 × 10^5 cells/ml in individual wells of a 24-well plate containing up to 50 μl of drug solutions. Inhibition of cell growth was determined after 72 h of incubation at 37 °C by determining the number of viable cells […] using trypan blue exclusion. The drug concentration required to inhibit cell growth by 50% compared to untreated controls was defined as the IC50.

## CCCC[C@H](NC(=O)[C@@H](NC(=O)[C@H](Cc1cn(Cc2ccccc2)cn1)NC(=O)[C@@H](NC(C)=O)[C@@H](C)OC(C)(C)C)[C@@H](C)OCc1ccccc1)C(=O)N[C@@H](CCC(=O)OC(C)(C)C)C(=O)NCC(=O)NCc1ccccc1 [4A6, Ac-Thr(tBu)-His(Bzl)-Thr(Bzl)-Nle-Glu(OtBu)-Gly-Bza] (Ac-T(tBu)[His(τ-Bzl)]T(Bn)[Nle]E(OtBu)G-NHBn)
  [Resistance Factor] THP1/BTZ50: 44
